The target in one test is rat orexin 1 receptor (Rattus norvegicus (Rat), UniProt P56718). Put plainly: Rat orexin 1 receptor radioligand binding (competitive binding, HEK293 membranes).
For another test, the target named is human orexin 1 receptor (Homo sapiens (Human), UniProt O43613). As to the kind of experiment: Human orexin 1 receptor radioligand binding (competitive binding, CHO membranes).
For a further test, the target named is human orexin 2 receptor (Homo sapiens (Human), UniProt O43614). Put plainly: Human orexin 2 receptor radioligand binding ([3H]-EMPA competition, HEK293 membranes).
[1] abbreviates: human orexin 2 receptor, Table 2, averages from between 2-20 runs, read-out: hOX2 Ki.
Where [2] appears, read: rat orexin 1 receptor, Table 2, averages from between 2-20 runs, read-out: rOX1 Ki.
Where [3] appears, read: human orexin 1 receptor, Table 2, averages from between 2-20 runs, read-out: hOX1 Ki.

Read-outs that look alike come from different tables or passages of the source.

Chain of human orexin 2 receptor (O43614 whole entry): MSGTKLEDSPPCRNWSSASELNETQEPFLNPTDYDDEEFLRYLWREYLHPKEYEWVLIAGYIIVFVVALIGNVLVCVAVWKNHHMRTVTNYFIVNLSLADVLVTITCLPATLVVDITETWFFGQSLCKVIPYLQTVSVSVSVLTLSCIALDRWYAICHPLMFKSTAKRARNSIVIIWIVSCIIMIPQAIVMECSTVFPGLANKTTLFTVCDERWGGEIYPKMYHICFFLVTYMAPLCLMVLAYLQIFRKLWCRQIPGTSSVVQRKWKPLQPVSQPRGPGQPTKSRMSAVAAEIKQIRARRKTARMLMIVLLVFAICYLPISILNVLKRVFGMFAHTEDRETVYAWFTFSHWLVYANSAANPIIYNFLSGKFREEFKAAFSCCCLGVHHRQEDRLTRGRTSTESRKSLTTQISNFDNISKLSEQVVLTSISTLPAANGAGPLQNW
Chain of rat orexin 1 receptor (P56718 whole entry): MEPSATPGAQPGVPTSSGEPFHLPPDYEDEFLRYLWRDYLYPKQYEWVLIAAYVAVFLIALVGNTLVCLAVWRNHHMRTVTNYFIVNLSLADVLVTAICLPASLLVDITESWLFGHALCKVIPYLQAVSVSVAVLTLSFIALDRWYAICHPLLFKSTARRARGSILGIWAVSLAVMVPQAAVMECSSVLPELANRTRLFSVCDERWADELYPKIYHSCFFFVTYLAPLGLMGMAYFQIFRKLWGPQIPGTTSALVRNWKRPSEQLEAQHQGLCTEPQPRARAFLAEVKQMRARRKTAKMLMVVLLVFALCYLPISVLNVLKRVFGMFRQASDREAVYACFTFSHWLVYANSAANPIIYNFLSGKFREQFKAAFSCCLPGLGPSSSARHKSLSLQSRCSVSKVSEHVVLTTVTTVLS
Chain of human orexin 1 receptor (O43613 whole entry): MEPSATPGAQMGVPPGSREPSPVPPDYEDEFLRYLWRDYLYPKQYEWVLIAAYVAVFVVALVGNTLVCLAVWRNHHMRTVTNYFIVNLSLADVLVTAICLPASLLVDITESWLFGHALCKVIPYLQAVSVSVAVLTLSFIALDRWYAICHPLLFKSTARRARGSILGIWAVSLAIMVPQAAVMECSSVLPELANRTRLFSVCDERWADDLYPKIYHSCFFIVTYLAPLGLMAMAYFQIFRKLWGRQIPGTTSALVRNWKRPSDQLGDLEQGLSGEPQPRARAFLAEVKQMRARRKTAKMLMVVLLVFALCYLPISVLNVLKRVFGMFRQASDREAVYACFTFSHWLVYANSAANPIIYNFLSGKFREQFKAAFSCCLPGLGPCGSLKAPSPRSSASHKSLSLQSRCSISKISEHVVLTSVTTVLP

In the case of `Cc1ccc(-c2ncccn2)c(C(=O)N2[C@@H]3CC[C@H]2[C@H](Nc2cnc(C(F)(F)F)cn2)C3)n1` [Example 403, (6-methyl-3-(pyrimidin-2-yl)pyridin-2-yl)((1S,2R,4R)-2-((5-(trifluoromethyl)pyrazin-2-yl)amino)-7-azabicyclo[2.2.1]heptan-7-yl)methanone], the Ki (usually a dissociation constant, usually derived from enzyme kinetics or from competition with a known ligand) at rat orexin 1 receptor (read-out: rOX1 Ki) amounted to 88 nM; on human orexin 1 receptor (read-out: hOX1 Ki) it was 67 nM; at human orexin 2 receptor (setting [1]) it was 431 nM.
`Cc1cccc(C(=O)N2[C@@H]3CC[C@H]2[C@H](Nc2cnc(Br)cn2)C3)c1-n1nccn1` [Example 312, ((1S,2R,4R)-2-((5-bromopyrazin-2-yl)amino)-7-azabicyclo[2.2.1]heptan-7-yl)(3-methyl-2-(2H-1,2,3-triazol-2-yl)phenyl)methanone]: the Ki stood at 6 nM at rat orexin 1 receptor (read-out: rOX1 Ki), 9 nM on human orexin 1 receptor (read-out: hOX1 Ki) and 360 nM on human orexin 2 receptor (setting [1]).
Take `O=C(c1ccccc1-c1ncc(F)cn1)N1[C@@H]2CC[C@H]1[C@H](Nc1ncc(C(F)(F)F)cc1Cl)C2` [Example 385, ((1S,2R,4R)-2-((3-chloro-5-(trifluoromethyl)pyridin-2-yl)amino)-7-azabicyclo[2.2.1]heptan-7-yl)(2-(5-fluoropyrimidin-2-yl)phenyl)methanone]: the Ki at rat orexin 1 receptor (read-out: rOX1 Ki) was found to be 37 nM; on human orexin 1 receptor (read-out: hOX1 Ki), 44 nM; at human orexin 2 receptor (setting [1]) it was 696 nM.
With `Cc1cnc(C(=O)N2[C@@H]3CC[C@H]2[C@H](Nc2cnc(C(F)(F)F)cn2)C3)c(-c2ncccn2)c1` [Example 405, (5-methyl-3-(pyrimidin-2-yl)pyridin-2-yl)((1S,2R,4R)-2-((5-(trifluoromethyl)pyrazin-2-yl)amino)-7-azabicyclo[2.2.1]heptan-7-yl)methanone], the Ki at rat orexin 1 receptor (read-out: rOX1 Ki) is 53 nM; on human orexin 1 receptor (read-out: hOX1 Ki) it was 59 nM; at human orexin 2 receptor (read-out: hOX2 Ki) it was greater than 10000 nM.
In the case of `O=C(c1cc(F)ccc1-c1ncccn1)N1[C@@H]2CC[C@H]1[C@H](Nc1ncc(C(F)(F)F)cn1)C2` [Example 415, (5-fluoro-2-(pyrimidin-2-yl)phenyl)((1S,2R,4R)-2-((5-(trifluoromethyl)pyrimidin-2-yl)amino)-7-azabicyclo[2.2.1]heptan-7-yl)methanone], the Ki at rat orexin 1 receptor (setting [2]) was determined as 102 nM; on human orexin 1 receptor (read-out: hOX1 Ki), 70 nM; on human orexin 2 receptor (read-out: hOX2 Ki), 2100 nM.
As to `O=C(c1cc(F)ccc1-c1ncco1)N1[C@@H]2CC[C@H]1[C@H](Nc1cnc(C(F)(F)F)cn1)C2` [Example 410, (5-fluoro-2-(oxazol-2-yl)phenyl)((1S,2R,4R)-2-((5-(trifluoromethyl)pyrazin-2-yl)amino)-7-azabicyclo[2.2.1]heptan-7-yl)methanone], the inhibition constant (Ki) on rat orexin 1 receptor (read-out: rOX1 Ki) stood at 67 nM; at human orexin 1 receptor (read-out: hOX1 Ki), 90 nM; on human orexin 2 receptor (setting [1]), 1000 nM.
The matching figures for `O=C(c1ccccc1-c1ncccn1)N1[C@@H]2CC[C@H]1[C@H](Nc1ccc(C(F)(F)F)cn1)C2` [Example 373, (2-(pyrimidin-2-yl)phenyl)((1S,2R,4R)-2-((5-(trifluoromethyl)pyridin-2-yl)amino)-7-azabicyclo[2.2.1]heptan-7-yl)methanone]: 34 nM, 36 nM and 679 nM.
The matching figures for `O=C(c1cccc(F)c1-n1nccn1)N1[C@@H]2CC[C@H]1[C@H](Nc1ccc(Br)cn1)C2` [Example 305, ((1S,2R,4R)-2-((5-bromopyridin-2-yl)amino)-7-azabicyclo[2.2.1]heptan-7-yl)(3-fluoro-2-(2H-1,2,3-triazol-2-yl)phenyl)methanone]: 24 nM, 12 nM and 980 nM.
For `O=C(c1cccc(Cl)c1-c1ncccn1)N1[C@@H]2CC[C@H]1[C@H](Nc1cnc(C(F)(F)F)cn1)C2` [Example 300, (3-chloro-2-(pyrimidin-2-yl)phenyl)((1S,2R,4R)-2-((5-(trifluoromethyl)pyrazin-2-yl)amino)-7-azabicyclo[2.2.1]heptan-7-yl)methanone], the inhibition constant (Ki) on rat orexin 1 receptor (read-out: rOX1 Ki) was found to be 9 nM; at human orexin 1 receptor (read-out: hOX1 Ki), 9 nM; on human orexin 2 receptor (setting [1]), 93 nM.
Consider `O=C(c1c(F)cccc1-c1ncccn1)N1C2CCC1C(Oc1ccc(C(F)(F)F)cn1)C2` (racemic) [Example 431], for which the Ki on rat orexin 1 receptor amounted to 143 nM; on human orexin 1 receptor, 180 nM; on human orexin 2 receptor it was 5100 nM.
For `O=C(c1ccc(F)cc1-c1ncccn1)N1[C@@H]2CC[C@H]1[C@H](Nc1ncc(C(F)(F)F)cn1)C2` [Example 414, (4-fluoro-2-(pyrimidin-2-yl)phenyl)((1S,2R,4R)-2-((5-(trifluoromethyl)pyrimidin-2-yl)amino)-7-azabicyclo[2.2.1]heptan-7-yl)methanone], the Ki at rat orexin 1 receptor (setting [2]) amounted to 160 nM; at human orexin 1 receptor (setting [3]) it was 81 nM; on human orexin 2 receptor (setting [1]), 5800 nM.
As for `O=C(c1cccc(F)c1-c1ncccn1)N1C2CCC1C(Oc1ccc(C(F)(F)F)cn1)C2` (racemic) [Example 429], the Ki on rat orexin 1 receptor was found to be 77 nM; at human orexin 1 receptor, 120 nM; at human orexin 2 receptor (setting [1]), 6300 nM.
On to `Cc1cccc(C(=O)N2[C@@H]3CC[C@H]2[C@H](Nc2ncc(Br)cn2)C3)c1-c1ncccn1` [Example 316, ((1S,2R,4R)-2-((5-bromopyrimidin-2-yl)amino)-7-azabicyclo[2.2.1]heptan-7-yl)(3-methyl-2-(pyrimidin-2-yl)phenyl)methanone], for which the Ki amounted to 20 nM at rat orexin 1 receptor (setting [2]), 59 nM at human orexin 1 receptor (read-out: hOX1 Ki) and 796 nM at human orexin 2 receptor (setting [1]).
As for `O=C(c1cccc(F)c1-c1ncco1)N1[C@@H]2CC[C@H]1[C@H](Nc1ccc(C(F)(F)F)cn1)C2` [Example 298, (3-fluoro-2-(oxazol-2-yl)phenyl)((1S,2R,4R)-2-((5-(trifluoromethyl)pyridin-2-yl)amino)-7-azabicyclo[2.2.1]heptan-7-yl)methanone], the inhibition constant (Ki) on rat orexin 1 receptor (setting [2]) amounted to 18 nM; at human orexin 1 receptor (setting [3]), 18 nM; at human orexin 2 receptor (setting [1]) it was 500 nM.
Take `O=C(c1ccc(F)cc1-n1nccn1)N1[C@@H]2CC[C@H]1[C@H](Nc1ccc(C(F)(F)F)cn1)C2` [Example 368, (4-fluoro-2-(2H-1,2,3-triazol-2-yl)phenyl)((1S,2R,4R)-2-((5-(trifluoromethyl)pyridin-2-yl)amino)-7-azabicyclo[2.2.1]heptan-7-yl)methanone]: the Ki was 78 nM on rat orexin 1 receptor (setting [2]), 71 nM at human orexin 1 receptor (setting [3]) and 2600 nM on human orexin 2 receptor (setting [1]).
For the compound `Cc1cccc(C(=O)N2[C@@H]3CC[C@H]2[C@H](Nc2ccc(Br)cn2)C3)c1-n1nccn1` [Example 306, ((1S,2R,4R)-2-((5-bromopyridin-2-yl)amino)-7-azabicyclo[2.2.1]heptan-7-yl)(3-methyl-2-(2H-1,2,3-triazol-2-yl)phenyl)methanone], the inhibitory constant (Ki) at rat orexin 1 receptor (read-out: rOX1 Ki) is 11 nM; on human orexin 1 receptor (read-out: hOX1 Ki), 4 nM; on human orexin 2 receptor (setting [1]), 396 nM.
On to `O=C(c1cccc(F)c1-n1nccn1)N1[C@@H]2CC[C@H]1[C@H](Nc1ncc(C(F)(F)F)cc1Cl)C2` [Example 383, ((1S,2R,4R)-2-((3-chloro-5-(trifluoromethyl)pyridin-2-yl)amino)-7-azabicyclo[2.2.1]heptan-7-yl)(3-fluoro-2-(2H-1,2,3-triazol-2-yl)phenyl)methanone], for which the values for the inhibition constant (Ki) at rat orexin 1 receptor (setting [2]), on human orexin 1 receptor (setting [3]) and at human orexin 2 receptor (setting [1]) were 33 nM, 16 nM and 767 nM, respectively.
Consider `Cc1cnc(-n2nccn2)c(C(=O)N2[C@@H]3CC[C@H]2[C@H](Nc2cnc(C(F)(F)F)cn2)C3)c1` [Example 401, (5-methyl-2-(2H-1,2,3-triazol-2-yl)pyridin-3-yl)((1S,2R,4R)-2-((5-(trifluoromethyl)pyrazin-2-yl)amino)-7-azabicyclo[2.2.1]heptan-7-yl)methanone], for which the Ki on rat orexin 1 receptor (setting [2]) is 196 nM; at human orexin 1 receptor (setting [3]) it was 394 nM; on human orexin 2 receptor (setting [1]) it was greater than 10000 nM.
Regarding `O=C(c1ccccc1-c1ncccn1)N1[C@@H]2CC[C@H]1[C@H](Nc1ncc(C(F)(F)F)cn1)C2` [Example 417, (2-(pyrimidin-2-yl)phenyl)((1S,2R,4R)-2-((5-(trifluoromethyl)pyrimidin-2-yl)amino)-7-azabicyclo[2.2.1]heptan-7-yl)methanone], the Ki at rat orexin 1 receptor (read-out: rOX1 Ki) came to 52 nM; at human orexin 1 receptor (read-out: hOX1 Ki), 41 nM; at human orexin 2 receptor (setting [1]) it was 1900 nM.
The matching figures for `O=C(c1c(F)cccc1-c1ncco1)N1[C@@H]2CC[C@H]1[C@H](Nc1cnc(C(F)(F)F)cn1)C2` [Example 411, (2-fluoro-6-(oxazol-2-yl)phenyl)((1S,2R,4R)-2-((5-(trifluoromethyl)pyrazin-2-yl)amino)-7-azabicyclo[2.2.1]heptan-7-yl)methanone]: 53 nM, 31 nM and 622 nM.
The matching figures for `O=C(c1cccc(F)c1-n1nccn1)N1[C@@H]2CC[C@H]1[C@H](Nc1cnc(Br)cn1)C2` [Example 311, ((1S,2R,4R)-2-((5-bromopyrazin-2-yl)amino)-7-azabicyclo[2.2.1]heptan-7-yl)(3-fluoro-2-(2H-1,2,3-triazol-2-yl)phenyl)methanone]: 17 nM, 21 nM and 1000 nM.
As to `O=C(c1ccccc1-c1ncccn1)N1[C@@H]2CC[C@H]1[C@H](Nc1ncc(C(F)(F)F)cc1F)C2` [Example 461, ((1S,2R,4R)-2-((3-fluoro-5-(trifluoromethyl)pyridin-2-yl)amino)-7-azabicyclo[2.2.1]heptan-7-yl)(2-(pyrimidin-2-yl)phenyl)methanone], the Ki at rat orexin 1 receptor (Table 2, further testing, averages from 2-20 runs, read-out: rOX1 Ki) was 30 nM; on human orexin 1 receptor (Table 2, further testing, averages from 2-20 runs, read-out: hOX1 Ki), 24 nM; at human orexin 2 receptor (Table 2, further testing, averages from 2-20 runs, read-out: hOX2 Ki), 760 nM.
On to `O=C(c1cccc(F)c1-c1ncccn1)N1[C@@H]2CC[C@H]1[C@H](Nc1ncc(C(F)(F)F)cc1F)C2` [Example 382, (3-fluoro-2-(pyrimidin-2-yl)phenyl)((1S,2R,4R)-2-((3-fluoro-5-(trifluoromethyl)pyridin-2-yl)amino)-7-azabicyclo[2.2.1]heptan-7-yl)methanone], for which the inhibitory constant (Ki) worked out at 18 nM at rat orexin 1 receptor (setting [2]), 15 nM at human orexin 1 receptor (setting [3]) and 1100 nM on human orexin 2 receptor (setting [1]).

For the origin of these results see patent US9637496B2, “Substituted 7-azabicycles and their use as orexin receptor modulators” (priority 2013, dated 2017).
